Experiments:
[1] = target: T1, zebrafish P2X4 (zfP2X4) WT (Danio rerio, UniProt F8W463); assay: Two Electrode Voltage Clamp recording of Xenopus oocytes expressing zebrafish P2X4 WT; format: cell-based; conditions: 1 mM nucleotide for 10 sec after prior application of 100 μM ATP; holding potential −70 mV; n = 4
T1 construct: The cRNAs encoding zebrafish P2X4 (NP_705939; WT); expressed in transfected cells; host or cells: Xenopus laevis oocytes injected with cRNA from pGEMHE
T1 sequence (F8W463 1-389): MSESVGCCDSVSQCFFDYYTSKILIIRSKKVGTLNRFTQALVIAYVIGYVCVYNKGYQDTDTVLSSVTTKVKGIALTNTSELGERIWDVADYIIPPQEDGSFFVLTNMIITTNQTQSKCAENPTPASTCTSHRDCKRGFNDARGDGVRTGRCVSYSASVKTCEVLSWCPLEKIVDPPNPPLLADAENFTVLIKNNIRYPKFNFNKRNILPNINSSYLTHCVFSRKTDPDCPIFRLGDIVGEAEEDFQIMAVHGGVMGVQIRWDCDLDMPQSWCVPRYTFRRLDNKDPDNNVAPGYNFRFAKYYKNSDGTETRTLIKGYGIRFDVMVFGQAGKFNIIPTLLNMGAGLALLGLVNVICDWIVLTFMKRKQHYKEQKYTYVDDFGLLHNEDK
Source text: To assess the nucleotide base specificity of zebrafish P2X4 (zfP2X4), we first performed Two Electrode Voltage Clamp (TEVC) recording of Xenopus oocytes. As shown previously, the initial “priming” application with a low concentration of ATP increases P2X receptors sensitivity to second or more applications of ligands, which is useful for evaluating the affinity of ligands. Therefore, we expressed zfP2X4 in oocytes and recorded the zfP2X4-associated currents evoked by the application of high concentrations (1 mM) of nucleoside triphosphates (ATP, CTP, GTP and UTP), following the prior application of 100 μM ATP.
Figure 1 Current responses of zebrafish P2X4 evoked by nucleoside triphosphates. (A–D) Representative currents of zebrafish P2X4 WT, evoked first by 100 μM ATP and then by (A) 1 mM ATP, (B) 1 mM CTP, (C) 1 mM GTP and (D) 1 mM UTP. Each nucleotide was applied for 10 sec. The holding potential was −70 mV.
(§1) The cRNAs encoding zebrafish P2X4 (NP_705939; WT) and rat P2X4 (NP_113782.1; WT and mutants) were transcribed from pGEMHE plasmids, using a mMessage mMachine® T7 ULTRA kit (Ambion, Huntingdon, Cambridgeshire, UK). Xenopus laevis oocytes were prepared, and RNA (100 ng for zebrafish P2X4, and 20 ng for rat P2X4) was injected into the oocytes. The oocytes were incubated at 18 °C in Barth’s solution, containing 88 mM NaCl, 1 mM KCl, 2.4 mM NaHCO3, 10 mM HEPES, 0.33 mM Ca(NO3)2, 0.41 mM CaCl2, and 0.82 mM MgSO4, pH 7.4, supplemented with 50 μg/ml gentamicin, and were used for recording after 2–3 days. Recording solutions contained 100 mM NaCl, 5 mM HEPES, 2 mM MgCl2, pH 7.3, and nucleoside triphosphates (ATP, CTP, GTP, and UTP), which were freshly prepared each day. Oocytes were held at −70 mV with a bath-clamp amplifier (OC-725C, Warner Co., USA), and macroscopic currents were recorded and analyzed using the pClamp 10 software (Molecular Devices, USA)[33][34]. We measured n = 4 for zebrafish P2X4 data and n = 7–9 for rat P2X4 data.

[2] = target: T2, rat P2X4 rT186S mutant (Rattus norvegicus, UniProt P51577, T186S); assay: Two-Electrode Voltage Clamp recording, rat P2X4 T186S mutant in Xenopus oocytes; format: cell-based; conditions: for nucleotide-evoked currents: GTP and UTP applied at 3 mM (Fig. S4); for EC50: oocytes held at −70 mV, n = 9, read-out: EC50 (evoked current, dose-response)
T2 construct: rat P2X4 (NP_113782.1; WT and mutants) were transcribed from pGEMHE plasmids; expressed in transfected cells; host or cells: Xenopus laevis oocytes injected with cRNA from pGEMHE
T2 sequence (P51577 1-388 T186S): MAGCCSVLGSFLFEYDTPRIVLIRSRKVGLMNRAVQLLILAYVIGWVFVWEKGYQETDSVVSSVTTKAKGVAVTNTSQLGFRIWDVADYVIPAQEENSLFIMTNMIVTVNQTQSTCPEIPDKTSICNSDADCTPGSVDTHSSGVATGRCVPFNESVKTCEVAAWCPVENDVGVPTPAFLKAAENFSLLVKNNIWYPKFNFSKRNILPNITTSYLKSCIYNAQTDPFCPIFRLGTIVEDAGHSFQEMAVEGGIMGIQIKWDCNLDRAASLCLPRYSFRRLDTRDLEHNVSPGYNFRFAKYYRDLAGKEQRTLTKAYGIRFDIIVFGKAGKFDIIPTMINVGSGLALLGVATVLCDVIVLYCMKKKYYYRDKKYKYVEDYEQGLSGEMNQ
Source text: To further investigate the functional roles of the residues involved in the base recognition, T189 and R143, we performed an electrophysiological analysis with the rat P2X4, since its electrophysiological properties have been well established. We first assessed the functional role of T189 in zfP2X4 and introduced mutations at the equivalent residue of the rat P2X4 to create three mutants (^rT186A, ^rT186V and ^rT186S; the superscript “r” means rat P2X4). […] Therefore, we examined the ^rWT and the ^rT186S mutant.
Figure 4 Current responses of ^rWT, ^rT186S, ^rH140A and ^rH140R evoked by ATP and CTP. (A,B) Representative currents of ^rWT evoked by ATP (1–300 μM) (A) and CTP (10–10,000 μM) (B). (C,D) Representative currents of the ^rT186S mutant evoked by ATP (1–300 μM) (C) and CTP (10–10,000 μM) (D). (E,F) Representative currents of the ^rH140A mutant evoked by ATP (1–300 μM) (E) and CTP (10–10,000 μM) (F). (G,H) Representative currents of the ^rH140R mutant evoked by ATP (1–300 μM) (G) and CTP (10–10,000 μM) (H). (I–K) Concentration-response curves evoked by ATP and CTP in the ^rWT and the ^rT186S mutant (I), in the ^rWT and the ^rH140A mutant (J) and in the ^rWT and the ^rH140R mutant (K). Symbols are defined in the figure, and bars depict means ± SEM (n = 7–9).
as §1

Row | Compound | zfP2X4-associated currents evoked by nucleoside triphosphate [1] | nucleotide-evoked currents [2] | EC50 [2] [µM]
1 | Nc1nc2c(ncn2[C@@H]2O[C@H](COP(=O)(O)OP(=O)(O)OP(=O)(O)O)[C@@H](O)[C@H]2O)c(=O)[nH]1 [GTP] | not GTP- and UTP-evoked currents | no GTP- and UTP-evoked currents were detected | 
2 | O=c1ccn([C@@H]2O[C@H](COP(=O)(O)OP(=O)(O)OP(=O)(O)O)[C@@H](O)[C@H]2O)c(=O)[nH]1 [UTP] | not GTP- and UTP-evoked currents | no GTP- and UTP-evoked currents were detected | 
3 | Nc1ncnc2c1ncn2[C@@H]1O[C@H](COP(=O)(O)OP(=O)(O)OP(=O)(O)O)[C@@H](O)[C@H]1O [ATP, Adenosine 5-triphosphate] | detected specific ATP- and CTP-evoked currents | ATP- and CTP-evoked currents were detected | 29.9 ± 3.1
4 | Nc1ccn([C@@H]2O[C@H](COP(=O)(O)OP(=O)(O)OP(=O)(O)O)[C@@H](O)[C@H]2O)c(=O)n1 [CTP] | detected specific ATP- and CTP-evoked currents | ATP- and CTP-evoked currents were detected | 557 ± 120

Reference: publication PMC5362899, “Structural insights into the nucleotide base specificity of P2X receptors” (Scientific Reports, 2017)
